# Assay results published in US3972872A, “6-[α-(ω-Guanidinoalkanoylamido)acylamido]penicillanic acids” (Pfizer Inc., priority 1975, dated 1976).
# Where a name gives a salt, the structure may show the parent alone. Read-outs that look alike come from different tables or passages of the source.
# Legend:
# Proteus mirabilis C015 = test: In vitro MIC, Proteus mirabilis C015; format: cell-based; conditions: unit assumed
# Source text: (§1) The in vitro spectra of a number of 6-[α-(ω-guanidinoalkanoylamido)acylamido]penicillanic acids of this invention against certain gram-negative bacteria are presented in Table I below. […] Th compounds of Table I have the formula
# E. coli 266 = test: In vitro MIC, E. coli 266, two-fold serial dilution; format: cell-based, Escherichia coli; conditions: unit assumed
# Source text: as §1
# Escherichia coli 266 = test: In vivo protection of mice versus Escherichia coli 266; conditions: Escherichia coli, 266, sc, 96 h, read-out: % Protection
# Source text: (§2) Additionally, the compounds of this invention are active versus gram-positive and gram-negative bacteria in vivo via the parenteral route of administration in animals, including man. Their in vivo activity in animals, including man, by the oral route of administration is more limited as regards susceptible organisms. Nevertheless, oral in vivo activity against Escherichia coli and Staphylococcus aureus is a common property of many compounds of this invention. Table II below presents the comparative in vivo spectra of several compounds within the scope of this invention against D-α-aminobenzylpenicillin (Ampicillin).
# (§3) The acute systemic infections in mice were produced by the intraperitoneal inoculation of standardized cultures suspended in 5% hog gastric mucin. Treatment with the drugs was initiated 0.5 hours after inoculation of the infecting organism. A second dose was administered 4 hours later. The PD50 values were calculated after a hold period of 4 days.
# Pseudo. aeruginosa 490 = test: In vitro MIC, Pseudo. aeruginosa 490; format: cell-based, Pseudomonas aeruginosa; conditions: unit assumed
# Source text: as §1
# Serratia marcescens A001 = test: In vitro MIC, Serratia marcescens A001; format: cell-based; conditions: unit assumed
# Source text: as §1
# Proteus rettgeri B006 = test: In vitro MIC, Proteus rettgeri B006; format: cell-based; conditions: unit assumed
# Source text: (§4) The in vitro activity of the herein-described compounds renders them useful for topical application in the form of ointments, creams and the like, or for sterilization purposes, e.g., sick room utensils.
# as §1
# Proteus vulgaris A059 = test: In vitro MIC, Proteus vulgaris A059; format: cell-based; conditions: unit assumed
# Source text: as §1
# Pseudo. aeruginosa 173 = test: In vitro MIC, Pseudo. aeruginosa 173; format: cell-based, Pseudomonas aeruginosa; conditions: unit assumed
# Source text: as §1
# Pseudo. aeruginosa 104 = test: In vitro MIC, Pseudo. aeruginosa 104; format: cell-based, Pseudomonas aeruginosa; conditions: unit assumed
# Source text: as §1
# Proteus mirabilis C020 = test: In vitro MIC, Proteus mirabilis C020; format: cell-based; conditions: unit assumed
# Source text: as §4, §1
# [1] = Urine levels and urinary recovery in dogs, single intramuscular dose
# E. coli = test: PD50 versus acute systemic E. coli infection in mice; format: in vivo; conditions: for ED50: Escherichia coli, 96 h, E. coli, mice
# Source text: as §2, §3
# P. aeruginosa = test: PD50 versus acute systemic P. aeruginosa infection in mice; format: in vivo; conditions: for ED50: Pseudomonas aeruginosa, 96 h, read-out: PD50
# Source text: as §2, §3
# S. aureus = test: PD50 versus acute systemic S. aureus infection in mice; format: in vivo; conditions: for ED50: Staphylococcus aureus, 96 h, S. aureus, mice
# Source text: as §2, §3
# [2] = Serum levels in dogs, single intramuscular dose; conditions: for Serum Levels: intramuscular 25 mg./kg.
# [3] = 50 mg./kg., mice, subcutaneous route
compound,measurement,setting,value
"CC(C)(C)C(=O)OCOC(=O)[C@@H]1N2C(=O)[C@@H](NC(=O)[C@H](NC(=O)CNC(=N)N)c3ccccc3)[C@H]2SC1(C)C [CH2 NH--C(NH)NH2, R=POM, 6-[D-2-Phenyl-2-(Guanidinoacetamido)Acetamido]Penicillanic Acid, Pivaloyloxymethyl Ester, Hydrochloride]",MIC,Proteus mirabilis C015,50 µg/mL
same,MIC,E. coli 266,25 µg/mL
same,responders at 50 mg/kg,Escherichia coli 266; [3],90%
same,MIC,Pseudo. aeruginosa 490,0.78 µg/mL
"CN(CC(=O)N[C@@H](C(=O)N[C@@H]1C(=O)N2[C@@H]1SC(C)(C)[C@@H]2C(=O)O)c1ccccc1)C(=N)N [CH2 N(CH3)--C(NH)NH2, R=H, 6-{D-2-Phenyl-2-[(1-Methylguanidino)Acetamido]Acetamido}-Penicillanic Acid]",MIC,Serratia marcescens A001,3.12 µg/mL
same,MIC,Proteus mirabilis C015,6.25 µg/mL
same,MIC,Proteus rettgeri B006,100 µg/mL
same,MIC,E. coli 266,6.25 µg/mL
same,MIC,Proteus vulgaris A059,6.25 µg/mL
same,MIC,Pseudo. aeruginosa 173,12.5 µg/mL
same,MIC,Pseudo. aeruginosa 104,50 µg/mL
same,responders at 50 mg/kg,Escherichia coli 266,60%
same,MIC,Proteus mirabilis C020,6.25 µg/mL
same,MIC,Pseudo. aeruginosa 490,3.12 µg/mL
"CC(C)(C)C(=O)OCOC(=O)[C@@H]1N2C(=O)[C@@H](NC(=O)[C@H](NC(=O)CCNC(=N)N)c3ccccc3)[C@H]2SC1(C)C [CH2 CH2 NH--C(NH)NH2, R=POM, Hydrochloride]",MIC,Proteus mirabilis C015,0.39 µg/mL
same,MIC,E. coli 266,6.25 µg/mL
same,responders at 50 mg/kg,Escherichia coli 266; [3],100%
same,MIC,Pseudo. aeruginosa 490,6.25 µg/mL
"CC1(C)S[C@@H]2[C@H](NC(=O)[C@H](NC(=O)CCNC(=N)N)c3ccccc3)C(=O)N2[C@H]1C(=O)O [CH2 CH2 NH--C(NH)NH2, R=H, 6-[D-2-Phenyl-2-(Guanidinopropionamido)Acetamido]Penicillanic Acid]",MIC,Serratia marcescens A001,6.25 µg/mL
same,MIC,Proteus mirabilis C015,0.78 µg/mL
same,MIC,Proteus rettgeri B006,50 µg/mL
same,MIC,E. coli 266,3.12 µg/mL
same,MIC,Proteus vulgaris A059,3.12 µg/mL
same,MIC,Pseudo. aeruginosa 173,3.12 µg/mL
same,MIC,Pseudo. aeruginosa 104,6.25 µg/mL
same,responders at 50 mg/kg,Escherichia coli 266; [3],70%
same,MIC,Proteus mirabilis C020,12.5 µg/mL
same,MIC,Pseudo. aeruginosa 490,3.12 µg/mL
"CN(CC(=O)N[C@@H](C(=O)N[C@@H]1C(=O)N2[C@@H]1SC(C)(C)[C@@H]2C(=O)OCOC(=O)C(C)(C)C)c1ccccc1)C(=N)N [CH2 N(CH3)--C(NH)NH2, R=POM, 6-{D-2-Phenyl-2-[(1-Methylguanidino)Acetamido]Acetamido}-Penicillanic Acid, Pivaloyloxymethyl Ester, Hydrochloride]",MIC,Proteus mirabilis C015,12.5 µg/mL
same,MIC,E. coli 266,12.5 µg/mL
same,responders at 50 mg/kg,Escherichia coli 266,70%
same,MIC,Pseudo. aeruginosa 490,3.12 µg/mL
"CC1(C)S[C@@H]2[C@H](NC(=O)[C@H](NC(=O)CN3CCNC3=N)c3ccccc3)C(=O)N2[C@H]1C(=O)O [CH2 --N--C(NH)--NHCH2 CH2, R=H]",MIC,Serratia marcescens A001,12.5 µg/mL
same,MIC,Proteus mirabilis C015,3.12 µg/mL
same,MIC,E. coli 266,6.25 µg/mL
same,MIC,Proteus vulgaris A059,6.25 µg/mL
same,MIC,Pseudo. aeruginosa 173,12.5 µg/mL
same,MIC,Pseudo. aeruginosa 104,12.5 µg/mL
same,responders at 50 mg/kg,Escherichia coli 266,100%
same,MIC,Pseudo. aeruginosa 490,3.12 µg/mL
"CC1(C)S[C@@H]2[C@H](NC(=O)[C@H](NC(=O)CNC(=N)N)c3ccccc3)C(=O)N2[C@H]1C(=O)O [A, 6-[D-2-Phenyl-2-(Guanidinoacetamido)Acetamido]Penicillanic Acid]",concentration at 0.5 h,"[1]; dog, urine, im, 25 mg/kg",366 µg/mL
same,concentration at 1 h,"[1]; dog, urine, im, 25 mg/kg",710 µg/mL
same,concentration at 2 h,"[1]; dog, urine, im, 25 mg/kg",1020 µg/mL
same,concentration at 3 h,"[1]; dog, urine, im, 25 mg/kg",554 µg/mL
same,concentration at 4 h,"[1]; dog, urine, im, 25 mg/kg",219 µg/mL
same,concentration at 5 h,"[1]; dog, urine, im, 25 mg/kg",130 µg/mL
same,dose excreted,"[1]; dog, urine, im, 25 mg/kg",35.4%
same,Concentrations in Urine,"[1]; dogs, intramuscular 25 mg./kg., 0 hours",0 ng/mL
same,total urinary recovery of drug compared with [B] (in words),"[1]; parenteral, dogs",clearly superior
same,ED50,E. coli; oral,50 mg/kg
same,ED50,"E. coli; sc, subcutaneous",6 mg/kg
same,in vivo oral activity against E. coli (in words),E. coli; oral,dual in vivo activity
same,MIC,Serratia marcescens A001,6.25 µg/mL
same,MIC,Proteus mirabilis C015,1.56 µg/mL
same,MIC,Proteus rettgeri B006,12.5 µg/mL
same,MIC,E. coli 266,1.56 µg/mL
same,ED50,P. aeruginosa; po,> 200 mg/kg
same,ED50,P. aeruginosa; sc,41 ± 13 mg/kg
same,activity against Pseudomonas aeruginosa (in words),"P. aeruginosa; in vivo, mice",active
same,MIC,Proteus vulgaris A059,1.56 µg/mL
same,ED50,S. aureus; oral,68 mg/kg
same,ED50,"S. aureus; sc, subcutaneous",13 ± 3.9 mg/kg
same,in vivo oral activity against S. aureus (in words),S. aureus; oral,dual in vivo activity
same,concentration at 1 h,"[2]; dog, serum, im, 0.05 mg/kg",78 µg/mL
same,concentration at 2 h,"[2]; dog, serum, im, 0.05 mg/kg",48 µg/mL
same,concentration at 0.5 h,"[2]; dog, serum, im, 25 mg/kg",30.4 µg/mL
same,concentration at 1 h,"[2]; dog, serum, im, 25 mg/kg",26.2 µg/mL
same,concentration at 2 h,"[2]; dog, serum, im, 25 mg/kg",10.3 µg/mL
same,concentration at 3 h,"[2]; dog, serum, im, 25 mg/kg",2.1 µg/mL
same,Serum Levels,"[2]; dogs, 0 hours",0 ng/mL
same,Serum Levels,"[2]; dogs, 4 hours",0 ng/mL
same,Serum Levels,"[2]; dogs, 6 hours",0 ng/mL
same,blood levels of drug compared with [B] (in words),"[2]; parenteral, dogs",clearly superior
same,MIC,Pseudo. aeruginosa 173,1.56 µg/mL
same,MIC,Pseudo. aeruginosa 104,1.56 µg/mL
same,responders at 50 mg/kg,Escherichia coli 266,100%
same,MIC,Proteus mirabilis C020,1.56 µg/mL
same,MIC,Pseudo. aeruginosa 490,1.56 µg/mL
